According to PubChem BioAssay AID330 (DTP/NCI, 2004):
Values joined by “and” are separate entries in the source; they are usually repeats but may differ in a detail not shown here. Equal values may be shown once. Toxic doses and inconclusive results are not listed. The calls were made as follows: active = survival T/C of 150% or more; inactive = T/C below 125% in these data.

Test system: P388 leukemia ip, CD2F1 mice, survival T/C
Test: NCI In Vivo Anticancer Drug Screen. Data for tumor model P388 Leukemia (intraperitoneal) in CD2F1 (CDF1) mice
Settings: endpoint: median survival time, higher = longer survival
Method in brief: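 Mice carrying the transplanted tumor received test compound or vehicle. Survival was recorded in each group, and the value is the treated-group measurement divided by that of the vehicle-treated control group.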

[1] = dose: 60.0 mg/kg/injection, schedule: Q01DX005 (ip), vehicle: Klucel (hydroxypropylcellulose) (HPC)
[2] = dose: 120.0 mg/kg/injection, schedule: Q01DX005 (ip), vehicle: Klucel (hydroxypropylcellulose) (HPC)
[3] = dose: 240.0 mg/kg/injection, schedule: Q01DX005 (ip), vehicle: Klucel (hydroxypropylcellulose) (HPC)
[4] = dose: 60.0 mg/kg/injection, schedule: Q01DX005 (ip), vehicle: saline with Tween-80
[5] = dose: 120.0 mg/kg/injection, schedule: Q01DX005 (ip), vehicle: saline with Tween-80
[6] = dose: 240.0 mg/kg/injection, schedule: Q01DX005 (ip), vehicle: saline with Tween-80
[7] = dose: 50.0 mg/kg/injection, schedule: Q01DX009 (ip), vehicle: saline with Tween-80
[8] = dose: 12.5 mg/kg/injection, schedule: Q01DX009 (ip), vehicle: Klucel (hydroxypropylcellulose) (HPC)
[9] = dose: 25.0 mg/kg/injection, schedule: Q01DX009 (ip), vehicle: Klucel (hydroxypropylcellulose) (HPC)
[10] = dose: 50.0 mg/kg/injection, schedule: Q01DX009 (ip), vehicle: Klucel (hydroxypropylcellulose) (HPC)
[11] = dose: 100.0 mg/kg/injection, schedule: Q01DX009 (ip), vehicle: Klucel (hydroxypropylcellulose) (HPC)
[12] = dose: 50.0 mg/kg/injection, schedule: Q01DX005 (ip), vehicle: saline with Tween-80
[13] = dose: 100.0 mg/kg/injection, schedule: Q01DX005 (ip), vehicle: saline with Tween-80
[14] = dose: 200.0 mg/kg/injection, schedule: Q01DX005 (ip), vehicle: saline with Tween-80

Measured: T/C

O=C(CN1CCOCC1)c1c(-c2ccccc2)[nH]c2ccccc12
inactive: dose: 100.0 mg/kg/injection, schedule: Q04DX003 (ip), vehicle: saline 104 % of control | dose: 200.0 mg/kg/injection, schedule: Q04DX003 (ip), vehicle: saline 102 % of control | dose: 400.0 mg/kg/injection, schedule: Q04DX003 (ip), vehicle: saline 95 % of control

Cc1c2ccncc2c(CNC(=O)CCCC(=O)NCc2c3cnccc3c(C)c3c2c2ccccc2n3C)c2c3ccccc3n(C)c12
inactive: dose: 6.25 mg/kg/injection, schedule: Q04DX002 (ip), vehicle: saline with Tween-80 104 % of control | dose: 12.5 mg/kg/injection, schedule: Q04DX002 (ip), vehicle: saline with Tween-80 104 % of control | dose: 25.0 mg/kg/injection, schedule: Q04DX002 (ip), vehicle: saline with Tween-80 102 % of control | dose: 50.0 mg/kg/injection, schedule: Q04DX002 (ip), vehicle: saline with Tween-80 104 % of control

N#CCCN1C(=O)C2(CCC#N)CCCCC2(O)N=C1c1ccccc1 (centres undefined)
inactive: [1] 92 % of control | [2] 94 % of control | [3] 92 % of control

C=CC1C(OC2OC(CO)C(O)C(O)C2O)OC=C(C(=O)OC)C1CC1CC(=O)CC(CC(=O)CCc2ccc(O)cc2)O1 (centres undefined)
inactive: dose: 18.75 mg/kg/injection, schedule: Q01DX005 (ip), vehicle: water 98 % of control | dose: 37.5 mg/kg/injection, schedule: Q01DX005 (ip), vehicle: water 101 % of control | dose: 75.0 mg/kg/injection, schedule: Q01DX005 (ip), vehicle: water 101 % of control | dose: 150.0 mg/kg/injection, schedule: Q01DX005 (ip), vehicle: water 101 % of control

COc1ccc(OC)c(C2N(Cc3ccc(N(C)C)cc3)CCCN2Cc2ccc(N(C)C)cc2)c1
inactive: dose: 50.0 mg/kg/injection, schedule: Q04DX003 (ip), vehicle: saline with Tween-80 91 % of control | dose: 100.0 mg/kg/injection, schedule: Q04DX003 (ip), vehicle: saline with Tween-80 91 % of control

COC(=O)NN(C(=O)OC)C12CCCC1N(C(=O)OC)N(C(=O)OC)c1c2ccc2ccccc12 (centres undefined)
inactive: [1] 103 % of control | [2] 103 % of control | [3] 96 % of control

CCOC(=O)N1OC2C=CC1CC2 (centres undefined)
inactive: [4] 97 % of control | [5] 102 % of control | [6] 100 % of control

O=C(NC1CCCCC1)ON1C(=O)C2C3C=CC(C3)C2C1=O (centres undefined)
inactive: dose: 3.12 mg/kg/injection, schedule: Q01DX009 (ip), vehicle: saline with Tween-80 101 % of control and 98 % of control | dose: 6.25 mg/kg/injection, schedule: Q01DX009 (ip), vehicle: saline with Tween-80 106 % of control and 110 % of control and 113 % of control | dose: 12.5 mg/kg/injection, schedule: Q01DX009 (ip), vehicle: saline with Tween-80 106 % of control and 110 % of control | dose: 25.0 mg/kg/injection, schedule: Q01DX009 (ip), vehicle: saline with Tween-80 113 % of control and 117 % of control and 98 % of control | [7] 119 % of control

CC1=CC(=C2C(=O)c3ccccc3C2=O)C=CN1CCCN1CCCCC1
inactive: dose: 50.0 mg/kg/injection, schedule: Q01DX009 (ip), vehicle: saline 103 % of control and 119 % of control | dose: 100.0 mg/kg/injection, schedule: Q01DX009 (ip), vehicle: saline 101 % of control and 106 % of control | dose: 200.0 mg/kg/injection, schedule: Q01DX009 (ip), vehicle: saline 106 % of control and 123 % of control | dose: 400.0 mg/kg/injection, schedule: Q01DX009 (ip), vehicle: saline 100 % of control

CCOc1ccc(/C=N/NC(=O)C(O)c2ccccc2)cc1OC (centres undefined)
inactive: [4] 96 % of control | [5] 100 % of control | [6] 94 % of control

CCN(CC)CCNC(=O)c1nn(C)c(=S)[nH]c1=O
inactive: dose: 100.0 mg/kg/injection, schedule: Q04DX002 (ip), vehicle: Klucel (hydroxypropylcellulose) (HPC) 93 % of control | dose: 200.0 mg/kg/injection, schedule: Q04DX002 (ip), vehicle: Klucel (hydroxypropylcellulose) (HPC) 93 % of control | dose: 400.0 mg/kg/injection, schedule: Q04DX002 (ip), vehicle: Klucel (hydroxypropylcellulose) (HPC) 101 % of control

C=CC(=O)NC(=O)Nc1ccccc1Cl
inactive: dose: 6.25 mg/kg/injection, schedule: Q01DX009 (ip), vehicle: Klucel (hydroxypropylcellulose) (HPC) 102 % of control | [8] 106 % of control | [9] 109 % of control and 118 % of control

CCCCN(CCC#N)c1ccc(/C=C/c2ccnc3ccccc23)cc1
inactive: [9] 96 % of control | [10] 96 % of control

O=C1c2ccccc2CCC12OC2c1cccnc1 (centres undefined)
inactive: [9] 100 % of control | [10] 100 % of control | [11] 104 % of control

CCc1ccc2c(-c3ccccc3)c3c(-c4ccccc4)c4ccccc4c(-c4ccccc4)c3c(-c3ccccc3)c2c1
inactive: dose: 12.5 mg/kg/injection, schedule: Q01DX005 (ip), vehicle: saline with Tween-80 99 % of control | dose: 25.0 mg/kg/injection, schedule: Q01DX005 (ip), vehicle: saline with Tween-80 91 % of control | [12] 98 % of control and 88 % of control

CCCCN1CCNC1=S
inactive: [12] 100 % of control | [13] 102 % of control | [14] 102 % of control

NC(=S)c1cn(C2OC(CO)C(O)C2O)c2ncnc(N)c12 (centres undefined)
inactive: dose: 0.31 mg/kg/injection, schedule: Q01DX009 (ip), vehicle: saline 100 % of control | dose: 0.63 mg/kg/injection, schedule: Q01DX009 (ip), vehicle: saline 109 % of control | dose: 1.4 mg/kg/injection, schedule: Q01DX009 (ip), vehicle: saline with Tween-80 119 % of control | dose: 5.0 mg/kg/injection, schedule: Q01DX009 (ip), vehicle: saline with Tween-80 86 % of control

OCC(O)C(Cl)CCl (centres undefined)
inactive: dose: 60.0 mg/kg/injection, schedule: Q01DX005 (ip), vehicle: saline 101 % of control | dose: 120.0 mg/kg/injection, schedule: Q01DX005 (ip), vehicle: saline 100 % of control | dose: 240.0 mg/kg/injection, schedule: Q01DX005 (ip), vehicle: saline 86 % of control

C=CCNC(=S)NNC(=O)Cc1nc2ccccc2[nH]1
inactive: dose: 50.0 mg/kg/injection, schedule: Q01DX005 (ip), vehicle: Klucel (hydroxypropylcellulose) (HPC) 98 % of control | dose: 100.0 mg/kg/injection, schedule: Q01DX005 (ip), vehicle: Klucel (hydroxypropylcellulose) (HPC) 97 % of control | dose: 200.0 mg/kg/injection, schedule: Q01DX005 (ip), vehicle: Klucel (hydroxypropylcellulose) (HPC) 92 % of control

CC1CN1P(=S)(N1CCCCC1)N1CC1C (centres undefined)
inactive: dose: 25.0 mg/kg/injection, schedule: Q01DX009 (ip), vehicle: suspension in saline 100 % of control | dose: 50.0 mg/kg/injection, schedule: Q01DX009 (ip), vehicle: suspension in saline 96 % of control | dose: 100.0 mg/kg/injection, schedule: Q01DX009 (ip), vehicle: suspension in saline 102 % of control | dose: 200.0 mg/kg/injection, schedule: Q01DX009 (ip), vehicle: suspension in saline 105 % of control

Nc1ccc(C(=O)CCl)c(Cl)c1
inactive: [8] 107 % of control | [9] 110 % of control | [10] 110 % of control and 116 % of control

O=c1oc(-c2ccccc2)cc(N(c2ccccc2)c2ccccc2)c1Cl
inactive: [7] 93 % of control | dose: 100.0 mg/kg/injection, schedule: Q01DX009 (ip), vehicle: saline with Tween-80 93 % of control | dose: 200.0 mg/kg/injection, schedule: Q01DX009 (ip), vehicle: saline with Tween-80 95 % of control

c1cc2c(c(-c3nccc4c3CCCC4)n1)CCCC2
inactive: [12] 109 % of control | [13] 109 % of control | [14] 93 % of control

Cc1cc(C)n(-c2ccc3nnnn3n2)n1
inactive: dose: 100.0 mg/kg/injection, schedule: Q04DX002 (ip), vehicle: saline 93 % of control | dose: 200.0 mg/kg/injection, schedule: Q04DX002 (ip), vehicle: saline 93 % of control | dose: 400.0 mg/kg/injection, schedule: Q04DX002 (ip), vehicle: saline 102 % of control

CN1CCCN2CCCN(C)P12
inactive: dose: 6.25 mg/kg/injection, schedule: Q01DX005 (ip), vehicle: saline 99 % of control | dose: 12.5 mg/kg/injection, schedule: Q01DX005 (ip), vehicle: saline 98 % of control | dose: 25.0 mg/kg/injection, schedule: Q01DX005 (ip), vehicle: saline 105 % of control

CC12OC1(C)C1C(=O)OCC1C2=O (centres undefined)
inactive: [9] 105 % of control | [10] 96 % of control | [11] 97 % of control | dose: 200.0 mg/kg/injection, schedule: Q01DX009 (ip), vehicle: Klucel (hydroxypropylcellulose) (HPC) 117 % of control
